Data on 62 compounds can be found in a melting point compilation (Tetko et al.; mined from patent text by program, amines drawn as free bases though some values may be those of a salt).

Molecules are shown by their SMILES.

The compound `CCOC(=O)c1cc2ccc(C)c(Cl)c2[nH]1` registered a melting point of 73 to 75 °C.

For the compound `Nc1cc([N+](=O)[O-])cnc1Nc1ccccc1F`, the melting point fell in the range of 171 to 172 °C.

In turn, `Cc1ccc(-c2ccccc2C(=O)Nc2ccc(C(=O)N3C[C@H]4CCCN4c4ccccc43)cc2)cc1` showed a melting point of 228 to 230 °C.

`CCOC(=O)CCc1cn(-c2ccc(C(F)(F)F)cn2)nc1C` registered a melting point of 50 to 51 °C.

`CCCNC(=O)c1nc(-c2ccccc2)c(-c2ccc(=O)[nH]n2)s1` returned a melting point of 232 to 233 °C.

`CCOC(=O)c1c(N2CCN(C(=O)c3cccs3)CC2)c2cccnc2n(Cc2ccc(OC(C)=O)cc2)c1=O` had a melting point of 123 °C.

As for `O=C1c2ccccc2C(=O)N1CC(=O)N1c2ccccc2N(Cc2ccc3ccccc3n2)C(=O)[C@H]2CCC[C@H]21` (relative stereo), the melting point was 258 to 260 °C.

`COC(=O)c1ccc(NC(=O)C(=Cc2ccccc2)C(=O)C(C)C)cc1`: the melting point lay in the range of 154 to 156 °C.

Regarding `COc1cc2occ(-c3ccccc3)c(=O)c2c(Cl)c1Cl`, the melting point fell in the range of 216 to 218 °C.

Regarding `Nc1ncnc2c1ncn2[C@H]1CO[C@@H](CO)C1`, the melting point lay in the range of 183 to 185 °C.

For `CC(=O)Nc1ncc2cc(-c3c(Cl)cccc3Cl)c(NC(C)=O)nc2n1`, the melting point was in the range of 223 to 225 °C.

Compound `CC(=O)Nc1cccc(Sc2c(Cc3cccc4ccccc34)sc3c2c(=O)n(C)c(=O)n3CC(C)C)c1` displayed a melting point of 173 to 174 °C.

With `Cn1nc(-c2ncc(N)nc2-c2ccccc2)ccc1=O`, the melting point fell in the range of 202 to 204 °C.

In turn, `OCCCc1cccc(CCCO)c1O` returned a melting point of 176 to 187 °C.

Compound `CCC(C)n1cc(Cl)nc(N2CCc3cc(OC)cc(Br)c32)c1=O` (configuration not stated) showed a melting point of 155 to 157 °C.

Compound `Cc1ccc(CC(C(N)=O)c2ccccc2)cc1` (configuration not stated) came in with a melting point of 150 to 151 °C.

`Cc1oc(-c2ccc(F)cc2)cc1CC(=O)O` yielded a melting point of 52 to 53 °C.

Turning to `O=C1C(c2cccc(C(F)(F)F)c2Cl)=NN(CCCCC(F)(F)F)C2C=C(Cl)C=CC12` (configuration not stated), the melting point fell in the range of 137 to 138 °C.

`OC(c1ccc2c(c1)CCN2)(C(F)F)C(F)F`: the melting point is 130 to 134 °C.

Turning to `CC(C)[C@@H](NCC1(O)OC[C@@H](O)[C@@H](O)[C@@H]1O)C(=O)O` (some centres not stated), the melting point was in the range of 125 to 126 °C.

In turn, `CCCCCCCCCCCCCCCCCCOc1ccc(C(=O)O)cc1OCCCCCCCCCCCCCCCCCC` came in with a melting point of 94 to 117 °C.

On to `CCCCCCCCCCCCCCOc1ccc(CBr)cc1`, for which the melting point was in the range of 40 to 41 °C.

The compound `COc1ccc(C(=O)CCC(=O)O)cc1CO` came in with a melting point of 217 to 218 °C.

`COc1ccc2[nH]cc(/C(C#N)=C/c3ccn(C)n3)c2c1` returned a melting point of 178 °C.

Compound `O=C(CCN1CCCC1)Nc1ccc2c(=O)c3ccc(NC(=O)CCN4CCCC4)cc3[nH]c2c1` registered a melting point of more than 320 °C.

Regarding `CCOC(=O)C1=C(N)N=C(OCC)C(C(=O)OCC)C1c1ccco1` (configuration not stated), the melting point was 110 °C.

As for `CNC(=N)Nc1nnc(-c2ccccc2C(F)(F)F)s1`, the melting point fell in the range of 160 to 162 °C.

The compound `C=CCOc1cc(O)c2c(=O)cc(-c3ccc(OC)c(OCC=C)c3)oc2c1` yielded a melting point of 122 °C.

In turn, `COC(=O)c1ccc(C(=O)NS(=O)(=O)c2ccc(CCNC(=O)c3ccccc3)cc2)cn1` had a melting point of 228 to 230 °C.

Compound `Cc1ccc(S(=O)(=O)NC(=O)OCCc2ccc(-n3c(C(C)C)nc4cc(C(=O)N(C)C)c(Cl)cc43)cc2)cc1` had a melting point of 173 to 176 °C.

For the compound `Oc1cccc2sncc12`, the melting point was in the range of 133 to 134 °C.

As for `Nc1ncccc1-c1nc2cc(-c3cccnc3)cnc2n1-c1ccc(CNS(=O)(=O)c2ccccc2)cc1`, the melting point fell in the range of 217 to 219 °C.

In turn, `CNC(=O)c1cccc(-c2c(C)cc(C)cc2C)c1` showed a melting point of 143 °C.

The compound `CCCCC[C@@H](CNC(=O)Nc1c(N2CCOCC2)ncnc1N1CCOCC1)c1cccc2c1OCO2` yielded a melting point of 128 to 132 °C.

`CN(C)C(=O)CCc1cc(-c2ccncc2)sc1-c1ccncc1`: the melting point was 166 to 167 °C.

`O=C(OCc1ccccc1)C1(Nc2ccccc2)CCN(CCc2ccccc2)CC1` returned a melting point of 76.7 °C.

For the compound `COC(=O)c1ccc(Nc2ccc([N+](=O)[O-])cc2C(=O)OC)cc1`, the melting point lay within 205 to 206 °C.

Turning to `CC(=O)c1c(Cl)cc(Cl)cc1OCC(=O)O`, the melting point stood at 110 °C.

The compound `CCCCCCCCCCCCCCCCCCN1C(=O)c2ccccc2C1=O` yielded a melting point of 78 to 79 °C.

In the case of `NC(=O)c1ccc(-c2ccc(-c3ccc(C(F)(F)F)cc3)o2)cc1`, the melting point lay within 263 to 264 °C.

Compound `O=C1CCC2=C(CCc3cc(Cl)ccc32)N1` displayed a melting point of 228 to 230 °C.

Take `Nc1cnc(-c2cc(Cl)cc(Cl)c2Cl)c(N)n1`: the melting point fell in the range of 178 to 180 °C.

Take `CCOC(=O)C(Cc1ccc(C(=O)C(C)(C)C)cc1)Cc1ccc(C(=O)C(C)(C)C)cc1`: the melting point fell in the range of 60 to 63 °C.

`CCC1(CCCCCl)C(=O)Nc2c(Cl)cc(Cl)cc21` (configuration not stated): the melting point was 65 to 67 °C.

`O=C1c2ccc(F)cc2CC1c1ccc(F)cc1` (configuration not stated) displayed a melting point of 72 to 74 °C.

As for `CCOC(=O)CC[C@H](NC(=O)c1cc(CCCc2cc3c(=O)[nH]c(N)nc3[nH]2)cs1)C(=O)OCC`, the melting point lay in the range of 81 to 82 °C.

Take `O=C1NC2CC3CC(C2)CC1C3`: the melting point was more than 270 °C.

`NC(=O)N1CCC(C2c3ncc(Br)cc3CCc3cc(Cl)cc(Cl)c32)CC1` (single isomer, unassigned; (+)): the melting point was in the range of 102 to 103 °C.

Turning to `CNCCc1cccc(N2C(=O)N(c3c(Cl)cccc3Cl)Cc3cnc(Nc4ccccc4)nc32)c1`, the melting point was 122 to 125 °C.

As to `COc1ccc(C(=O)c2cnn(C)c2O)c(Cl)c1N=C1CCCCS1=O` (configuration not stated), the melting point was 89 to 91 °C.

For `CCCc1c(OCC(O)COc2ccc3c(C)c(CC(=O)O)c(=O)oc3c2)ccc(C(C)=O)c1O` (configuration not stated), the melting point amounted to 130 °C.

The compound `CC(C)(C)Nc1nc(Cl)cc(N2CCCC2)n1` yielded a melting point of 153 to 157 °C.

For `Cn1c(Cl)cnc1CN1C(=O)C2(COc3cc4c(cc32)OCCO4)c2ccccc21` (configuration not stated), the melting point fell in the range of 91 to 95 °C.

With `CC(C)(C)C(=O)CC(C(=O)C(C)(C)C)n1cncn1` (configuration not stated), the melting point lay within 66 to 69 °C.

As to `c1ccc(N2CCN(CCCCc3cccnc3)CC2)nc1`, the melting point lay in the range of 54 to 64 °C.

The compound `O=C(O)C(Cc1ccccc1)Oc1ccc2cc(-c3cnc(Cc4ccccc4)o3)ccc2c1` (configuration not stated) returned a melting point of 78 to 82 °C.

Compound `N#Cc1c(NCCCn2ccnc2)cccc1Oc1ccc(-c2cn(C3CCOC3)c3ncnc(N)c23)cc1` (configuration not stated) registered a melting point of 110 °C.

On to `CCc1ccc(Cn2cc(-c3ccc(OC)cc3)ccc2=O)cn1`, for which the melting point is 130 °C.

For `CCc1c([N+](=O)[O-])ccc2cc[nH]c12`, the melting point is 50 °C.

For the compound `COc1ccc(C(=O)c2c(N(C)C)sc3cc(OCc4ccccc4)ccc23)cc1OC`, the melting point was 69 to 72 °C.

The compound `Cc1cc(Oc2c(Cl)cc(C(F)(F)F)cc2Cl)ccc1S(=O)(=O)C(F)(F)F` came in with a melting point of 121 to 122 °C.

Turning to `O=C1CC(c2cccc3oc4c(c23)CCCC4)CC(=O)O1`, the melting point was in the range of 139 to 140 °C.

In general, melting point refers to the temperature of the solid-liquid transition.
